Experimental data reported in ChEMBL document CHEMBL3352520, “CoMFA and CoMSIA analysis of ACE-inhibitory, antimicrobial and bitter-tasting peptides” (Eur J Med Chem, 2014).

What was measured:
Pseudomonas aeruginosa [1] = experiment: antimicrobial activity against Pseudomonas aeruginosa
Pseudomonas aeruginosa [2] = experiment: Antimicrobial activity against Pseudomonas aeruginosa relative to peptide Bac2A RLARIVVIRVAR sequence

Row | pIC50 (Pseudomonas aeruginosa [1]) | Ratio IC50 (Pseudomonas aeruginosa [2]) | Compound
1 | 6.64 | 0.23 | H-IRRRWWWIV-OH
2 | 6.89 | 0.13 | H-KRWWKWWRR-OH
3 | 6.12 | 0.76 | H-TRKVWWWRW-OH
4 | 6.62 | 0.24 | H-RWWRKWWIR-OH
5 | 6.55 | 0.28 | H-KRKIWWWIR-OH
6 | 6.17 | 0.68 | H-RRIWRWWWW-OH
7 | 6.4 | 0.4 | H-KRRRIWWWK-OH
8 | 6.52 | 0.3 | H-KKRWLWWWR-OH
9 | 6.51 | 0.31 | H-RIKRWWWWR-OH
10 | 6.74 | 0.18 | H-RKRLKWWIY-OH
11 | 6.29 | 0.51 | H-RIKVIWWWR-OH
12 | 6.06 | 0.88 | H-LRFILWWKR-OH
13 | 6.02 | 0.95 | H-RHWKTWWKR-OH
14 | 5.6 | 2.5 | H-WHGVRWWKW-OH
15 | 6.41 | 0.39 | H-RWRRKWWWW-OH
16 | 6.68 | 0.21 | H-IRRRKWWWW-OH
17 | 5.74 | 1.82 | N=C(N)NCCC[C@H](NC(=O)[C@H](CCCNC(=N)N)NC(=O)[C@@H](N)CCCNC(=N)N)C(=O)N[C@@H](Cc1c[nH]c2ccccc12)C(=O)N[C@@H](Cc1c[nH]c2ccccc12)C(=O)N[C@@H](Cc1c[nH]c2ccccc12)C(=O)N[C@@H](Cc1c[nH]c2ccccc12)C(=O)N[C@@H](Cc1c[nH]c2ccccc12)C(=O)N[C@@H](Cc1c[nH]c2ccccc12)C(=O)O
18 | 4.6 | 25 | H-RWILWWWRI-OH
19 | 6.51 | 0.31 | H-RKWWRWWRW-OH
20 | 6.7 | 0.2 | H-KWWKIWWKR-OH
21 | 6.37 | 0.43 | N=C(N)NCCC[C@H](NC(=O)[C@H](CCCCN)NC(=O)[C@H](CCCNC(=N)N)NC(=O)[C@@H](N)CCCNC(=N)N)C(=O)N[C@@H](Cc1c[nH]c2ccccc12)C(=O)N[C@@H](Cc1c[nH]c2ccccc12)C(=O)N[C@@H](Cc1c[nH]c2ccccc12)C(=O)N[C@@H](Cc1c[nH]c2ccccc12)C(=O)N[C@@H](Cc1c[nH]c2ccccc12)C(=O)O
22 | 6.66 | 0.22 | H-KRWWWWWKR-OH
23 | 6.64 | 0.23 | H-WRWWKWWRR-OH
24 | 6.6 | 0.25 | H-WKRWKWWKR-OH
